The subject of assay [1] is green algae (Selenastrum capricornutum). The conditions noted are these: cited from earlier work.
For assay [2], the system named is Gloeocapsa sp. and Oscillatoria sp. Nature of the assay: Algal efficacy on dry paint film (Modified ASTM 5589), pool Gs + Os. In kind it is cell-based. As to the method: (§1) A single biocide or blend of biocides was post added into white acrylic latex paint free of biocides to give a maximum total active ingredient/s concentration tested. This paint was then diluted with a biocide free acrylic latex paint to give targeted concentrations for the testing. Depending on the type of biocide blends tested, the total biocides concentrations varies from 400 to 3300 ppm. After biocides addition or dilution, each sample was hand mixed for at least a minute until uniformity was achieved. Each of the paint samples as well as a control sample (containing no biocide) were used to prepare films on black plastic-vinyl chloride/acetate copolymer panels (Leneta Company, Mahwah, N.J.) using a 0.0762 mm (3 mil) bird bar applicator. The panels were thoroughly dried for at least 2 days avoiding direct exposure to sunlight. Square discs (0.5 inch^2; 1.27 cm^2) were cut out from each panel and were used as the substrate for fungal and algal efficacy tests. This sample size allowed for an agar border when the sample disc was placed into the well of the test plate. Each sample was tested in duplicate.
(§2) The appropriate media (BOLD'S 3N for Chlorophytes, BG-11 for Cyanobacteria, and PDA for fungi) were used to support microbial growth. The test plates were maintained at room temp (25° C.-26° C.), in a cycled light-dark environment, for four weeks for algae. Plates for fungal challenge tests were maintained at 30° C. for four weeks. At the end of the incubation period the samples were scored for percent area covered by visible microbial growth.
Algal efficacy was tested as follows (Modified ASTM 5589).
ASTM 5589 is a standard accelerated test method for determining resistance of various coatings (including paints) to algal defacement. To accommodate for high-throughput screening, this method was scaled down from petri plates to 6-well plates. A single coupon was placed with a pair of sterile forceps at the center of the agar plug (on top) with the painted surface facing upwards. Algal inoculums were prepared by mixing equal concentrations (approximately 1×10^6 cfu/ml) and equal volumes (depending on number of samples to be inoculated) of like growing organisms.
In this synergy study, three pool of mixed algae were prepared as the test inoculum, Gloeocapsa sp. and Oscillatoria sp. a mix of cyanobacteria grown on BG-11 media; Chlorella sp., Chlorella kessleri, and Nostoc commune are unicellular chlorphytes that were mixed and grown on Bold media; Trentepohlia aurea, Tretepohlia odorata, and Calotrix parientina are filamentous algae that were mixed and grown on Bold media.
Each well that contained a tested coupon was inoculated with 400 μl of organism mixture (approximately 1×10^6 cfu/ml) making sure that the whole surface (paint film as well as the agar surrounding it) was evenly covered. The plates were incubated at room temp (25° C.-26° C.) with cyclic exposure to light (OTT-Lite model # OTL4012P, 40 Watt, 26 KLumen) and dark phases, for a period of four weeks. The total area covered was evaluated at the end of each week according to percent area covered in 5% increments.
(§3) The SI is calculated based on F. C. Kull et.
(§4) SI value of <1 in the formula indicates a synergism of the blended biocides exists.
(§5) NE=no end point at the concentration tested that will meet the percent inhibition criteria set in each SI calculation.

Assay [3] has as its system Alternaria alternata mixed with Aureobasidium pullulans. Description: Fungal efficacy on dry paint film (Modified ASTM 5590), pool Aa + Ap. In kind it is cell-based. As to the method: as §1, §2
(§6) Fungal efficacy was tested as follows (Modified ASTM 5590).
ASTM 5590 is a standard accelerated test method for determining resistance of various coatings (including paints) to fungal defacement. To accommodate for high-throughput screening, this method was scaled down from petri plates to 6-well plates. To set up the test, an agar plug was placed at the bottom of each well of the sterile 6-well plate. A single coupon was placed with a pair of sterile forceps at the center of the agar plug (on top) with the painted surface facing upwards. Fungal inoculums were prepared by mixing equal concentrations (approximately 1×10^6 cfu/ml) and equal volumes (depending on number of samples to be tested) of like growing organisms. For this synergy study, three pools of mixed fungi were prepared as the test inoculum. Cladosporium herbarum was mixed with Trichoderma viride, Aspergillus niger was mixed with Penicillium funiculosum and Alternaria alternata was mixed with Aureobasidium pullulans. […] The total percent area covered was evaluated and recorded at the end of each week and recorded in increments of 5%.
(§7) The SI is calculated based on F. C. […]

Assay [4] has as its system Aspergillus niger mixed with Penicillium funiculosum. Nature of the assay: Fungal efficacy on dry paint film (Modified ASTM 5590), pool An + Pf. The conditions noted are these: for % Inhibition, An + Pf: dry film, four weeks. In kind it is cell-based. As to the method: as §1, §2, §6
ASTM 5590 is a standard accelerated test method for determining resistance of various coatings (including paints) to fungal defacement. To accommodate for high-throughput screening, this method was scaled down from petri plates to 6-well plates. To set up the test, an agar plug was placed at the bottom of each well of the sterile 6-well plate. A single coupon was placed with a pair of sterile forceps at the center of the agar plug (on top) with the painted surface facing upwards. Fungal inoculums were prepared by mixing equal concentrations (approximately 1×10^6 cfu/ml) and equal volumes (depending on number of samples to be tested) of like growing organisms. For this synergy study, three pools of mixed fungi were prepared as the test inoculum. Cladosporium herbarum was mixed with Trichoderma viride, Aspergillus niger was mixed with Penicillium funiculosum and Alternaria alternata was mixed with Aureobasidium pullulans. Each well was inoculated with 400 microliter of organism mixture (approximately 1×10^6 cfu/ml) making sure that the whole surface (paint film as well as the agar surrounding it) was evenly covered. The plates were incubated at 30° C. in presence of moisture, for a period of four weeks. The total percent area covered was evaluated and recorded at the end of each week and recorded in increments of 5%.
as §3, §4, §5

Assay [5] relates to Cladosporium herbarum mixed with Trichoderma viride. Nature of the assay: Fungal efficacy on dry paint film (Modified ASTM 5590), pool TV + Ch. It counts as cell-based. As to the method: as §1, §2, §6
ASTM 5590 is a standard accelerated test method for determining resistance of various coatings (including paints) to fungal defacement. To accommodate for high-throughput screening, this method was scaled down from petri plates to 6-well plates. […] The total percent area covered was evaluated and recorded at the end of each week and recorded in increments of 5%.
as §7

Setting [6] is: Total conc 1500 ppm (synergy table).
The mark [7] stands for this setting: Total conc 750 ppm (synergy table).
[8] abbreviates: Conc. 750 ppm in paint, dry film, four weeks.
Setting [9] is: Conc. 1500 ppm in paint, dry film, four weeks.
[10] abbreviates: Conc. 2500 ppm in paint, dry film, four weeks.
[11] abbreviates: Total conc 2500 ppm (synergy table).

Like-named read-outs stand apart in the source and are kept apart here.

As for `O=C(O)CNCP(=O)(O)O` [Glyphosate, N-(phosphonomethyl)glycine], in assay [1] (72 hr), the “EbC50 (median effective concentration for biomass)” value is 485 mg/L and the “ErC50 (median effective concentration for growth rate)” value is 460 mg/L. The “EbC50 (median effective concentration for biomass)” value in assay [1] (7 day) was 13.8 mg/L.
`CCCCNC(=O)OCC#CI` [IPBC, 3-iodo-2-propynyl-butylcarbamate, reference compound]: the “% Inhibition, Gs + Os” value in assay [2] (setting [6]) was found to be 82.5%. Besides, in assay [3] (setting [7]), the “% inhibition, Aa + Ap” value was found to be 90%. Also, the “% inhibition, AnPf” value in assay [4] (setting [7]) was determined as 65%. Besides, in assay [5] (setting [6]), the “% Inhibition, TV + Ch” value is listed as 75%.
For Zinc Glyphosate, the “% Inhibition, Gs + Os” value in assay [2] (setting [8]) stood at 15%; in assay [2] (setting [9]), 72.5%; in assay [2] (setting [10]) it was 90%; in assay [2] (setting [6]) it was 72.5%. The “% inhibition, Aa + Ap” value stood at 47.5% in assay [3] (setting [9]), 70% in assay [3] (setting [10]) and 70% in assay [3] (setting [11]). The “% Inhibition, An + Pf” value in assay [4] (Conc. 750 ppm in paint) is on record as 20%; in assay [4] (Conc. 1500 ppm in paint), 27.5%; in assay [4] (Conc. 2500 ppm in paint), 30%. Besides, the “% inhibition, AnPf” value in assay [4] (setting [11]) worked out at 30%. Further, the “% Inhibition, TV + Ch” value was determined as 50% in assay [5] (setting [8]) and 90% in assay [5] (setting [10]).

The values are drawn from patent US8524636B2 (Dow Global Technologies LLC, priority 2010, dated 2013).
